According to patent EP0415103A1, “2,3-Dihydro-1-(pyridinylamino)-indoles, a process for their preparation and their use as medicaments” (HOECHST-ROUSSEL PHARMACEUTICALS INCORPORATED, priority 1989, dated 1991):

Columns and labels:
[1] = tested on: Scopolamine Induced Memory Deficit; assay: Dark Avoidance Assay (reversal of scopolamine-induced memory deficit); format: in vivo; conditions: mice, retest after 24 hours
Method: In this assay, mice are tested for their ability to remember an unpleasant stimulus for a period of 24 hours. A mouse is placed in a chamber that contains a dark compartment; a strong incandescent light drives it to the dark compartment, where an electric shock is administered through metal plates on the floor. The animal is removed from the testing apparatus and tested again, 24 hours later, for the ability to remember the electric shock. If scopolamine, an anticholinergic that is known to cause memory impairment, is administered before an animal's initial exposure to the test chambers, the animal re-enters the dark compartment shortly after being placed in the test chamber 24 hours later. The effect of scopolamine is blocked by an active test compound, resulting in a greater interval before re-entry into the dark compartment. The results for an active compound are expressed as the percent of a group of animals in which the effect of scopolamine is blocked, as manifested by an increased interval between being placed in the test chamber and re-entering the dark compartment. The activity of some of the compounds of the instant invention in the assay are given below in Table 2.

[2] = tested on: extensor tonus; assay: supramaximal electroshock (SES) assay (anticonvulsant activity); format: in vivo, male mouse; conditions: 30 minute pretreat, normalized relative to vehicle control
Method: The compounds of the invention are also useful as anticonvulsants due to their anticonvulsant activity in mammals. Anticonvulsant activity is measured in the male mouse using the supramaximal electroshock (SES) assay described in Arch. Int. Pharmacodyn. 92:97-107, 1952. In this procedure, groups of male mice are used. Drugs are prepared using distilled water and, if insoluble, a surfactant is added. Control animals receive vehicle. Drugs are routinely administered interperitoneally (i.p.). The dosage volume is 10 ml/kg. A primary screen is given a 30 minute pretreat. The animals' eyes are placed across the output terminals of an A.C. shocker that delivers 206 volts rms for 300 msec. Electrode paste coats the animals' eyes at the point of contact with the terminals. […] Protection is expressed as normalized percent inhibition relative to vehicle control.

[3] = tested on: phenyl-para-quinone induced writhing; assay: phenyl-para-quinone writhing assay (analgesia); format: in vivo, mice; conditions: for % Inhibition of Writhing: 20 mg/kg s.c., mice

## Nc1c2c(nc3ccccc13)CCCC2 [Tacrine]
[1]; 0.63 mg/kg s.c
  % of Animals With Scopolamine Induced Memory Deficit Reversal: 13%

## CCC1(c2ccccc2)C(=O)NC(=O)NC1=O [Phenobarbital, reference compound]
[2]; 8.4 mg/kg i.p.
  % Inhibition: -50% at 8.4 mg/kg

## c1ccc2c(c1)CCN2Nc1ccncc1 [2,3-Dihydro-N-(4-pyridinyl)-1H-indol-1-amine]
[3]
  % Inhibition of Writhing: 74% at 20 mg/kg
[1]; 0.3 mg/kg s.c.
  % of Animals With Scopolamine Induced Memory Deficit Reversal: 53%
[2]; 15 mg/kg i.p.
  % Inhibition: -40% at 15 mg/kg i.p.

## CCCN(c1ccncc1)N1CCc2ccccc21.O=C(O)C(=O)O [2,3-Dihydro-N-propyl-N-(4-pyridinyl)-1H-indol-1-amine oxalate]
[3]
  % Inhibition of Writhing: 100% at 20 mg/kg
[2]; 10 mg/kg i.p.
  % Inhibition: -40% at 10 mg/kg i.p.

## CC[C@@H]1C(=O)OC[C@@H]1Cc1cncn1C [Pilocarpine]
[1]; 1.25 mg/kg s.c
  % of Animals With Scopolamine Induced Memory Deficit Reversal: 19%

## CC(=O)Oc1ccccc1C(=O)O [Aspirin, reference compound]
[3]; Mus musculus, sc, read-out: ED₅₀ (subcutaneous dose at which 50% of the phenyl-para-quinone induced writhing is inhibited)
  ED50: 32.8 mg/kg
